# Measurements: patent US20250127908A1, “HETEROBIFUNCTIONAL CONDITIONAL INHIBITORS” (Kolm Therapeutics Inc., priority 2023, published 2025)
# pIC50: −log10 of the molar value.
# System: VCaP cells
# Assay: VCaP growth inhibition assay (CTG)
# Type: cell-based
# Conditions: Homo sapiens, 216 h, 30 pM R1881, 9-day treatment, CTG luminescence
# Procedure: Example B-2: VCaP Growth Inhibition Assay
# VCaP cells (ATCC Cat #CRL-2876) are plated at 1×10^4 cells per well of a white plastic 96-well cluster plate (Thermo Scientific Nunc Cat #165306) in 100 uL phenol red-free DMLEM (Gibco Cat #21063-029) media with […] (Omega Scientific Cat #FB-04). Cluster plates are returned to the incubator (37*C/5% CO2) for 72 hours prior to treatment. Just prior to treatment, 100 uL of phenol red-free DMEM/5% CSS and 60 pM Ri881 (Sigma Cat #R0908-10 mg) was added to each well of the cluster plates (Final R1881 concentration=30 pM). Compounds (200×) were added to each well in a volume of 1 uL, with serial dilutions (1:5) from 20 uM to 2 pM (final concentrations in well are 100 nM to 10 fMV). Cluster plates are returned to the incubator for 9 days.
# After the 9-day treatment period, media was removed from the cluster plates by inversion and 100 uL room temperature CTG reagent (Promega Cat #G7573) is added to each well. The cluster plates are placed on a shaker and incubated at room temperature for 20 minutes. Following this shaking/incubation, cluster plates are read on a luminometer (BMG ClarioStar). IC50 values are obtained by graphing the RLU data vs. compound concentration with nonlinear regression 4-parameter logistic curves (GraphPad Prism).
row,pIC50,Structure (SMILES)
1,7.00 to 9.00,CNC(=O)N1CCc2c(c(N3CCCc4cc(-c5cnn(C)c5)c(C(F)F)cc43)nn2C2CCN(C(=O)CC3CCN(c4ccc([C@H]5c6ccc(O)cc6CC[C@H]5c5ccccc5)cc4)CC3)CC2)C1 [Compound 6]
2,7.00 to 9.00,CNC(=O)N1CCc2c(c(N3CCCc4cc(-c5cnn(C)c5)c(C(F)F)cc43)nn2C2CCN(C(=O)CCC3CCN(c4ccc([C@H]5c6ccc(O)cc6CC[C@H]5c5ccccc5)cc4)CC3)CC2)C1 [Compound 7]
3,7.00 to 9.00,CNC(=O)N1CCc2c(c(N3CCCc4cc(-c5cnn(C)c5)c(C(F)F)cc43)nn2C2CCN(C(=O)COCC3CCN(c4ccc([C@H]5c6ccc(O)cc6CC[C@H]5c5ccccc5)cc4)CC3)CC2)C1 [Compound 8]
4,7.00 to 9.00,CNC(=O)N1CCc2c(c(N3CCCc4cc(-c5cnn(C)c5)c(C(F)F)cc43)nn2C2CCN(C(=O)COCCCC3CCN(c4ccc([C@H]5c6ccc(O)cc6CC[C@H]5c5ccccc5)cc4)CC3)CC2)C1 [Compound 9]
5,< 7.00,CNC(=O)N1CCc2c(c(N3CCCc4cc(-c5cnn(C)c5)c(C(F)F)cc43)nn2C2CCN(C(=O)COCCOCCN3CCN(CC4CCN(c5ccc([C@H]6c7ccc(O)cc7CC[C@H]6c6ccccc6)cc5)CC4)CC3)CC2)C1 [Compound 11]

# System: AR and CBP or p300 ternary complex
# Assay: Ternary complex formation assay (sandwich ELISA on lysates of treated VCaP cells: AR capture, CBP or p300 detection)
# Type: cell-based
# Conditions: VCaP cells treated with bifunctional for 1.5 hours; lysate; anti-AR capture, CBP or p300 antibody detection
# Procedure: Example B-1: Ternary Complex Formation Assay
# Preparation of Mouse Anti-AR Antibody Coated 96 Well Plates
# Black MaxiSorp plates: coat with 50 μL of mouse 1/50 diluted AR antibody (Monoclonal Antibody (AR 441 from Thermo Fisher); diluted in phosphate buffered saline (PBS). Spin the liquid to the bottom of the wells, if necessary. Incubate overnight at 4° C. Next day, wash 3 times with 200 μL of TBST. Block with 200 μL of blocking buffer (5% BSA in TBST) at room temperature for 2 hours (BSA: A4503 or A2153 from Sigma). Wash plates 3 times with TBST. Plates are ready for lysates
# Preparation of Dimerizer Treated Lysates
# Culture cells in 96 wells at 50K VCaP cells/well for at least 3 days. Plate in 5% Omega charcoal stripped FBS in total volume of 200 uL. Treat with bifunctional for 1.5 hours by adding 1 μL of 200× stock in DMSO. Aspirate media/compound. Add and pipet-to-mix 70 μL of 1× AlphaLisa Lysis Buffer to each well (Perkin Elmer, AlphaLISA SureFire Ultra, diluted in water). Pipet up and down when adding lysis buffer to disrupt cells. Let lysis proceed for 30 min at 4° C.
# Incubate for 1 hour at room temperature. Flick out the lysates. Wash 3 times with TBST. Add 75 uL of rabbit CBP or p300 antibody to each well (diluted 1:5000 in blocking buffer (5% BSA in TBST). CBP antibody: (D6C5) Rabbit mAb #7389; p300 antibody: (D8Z4E) Rabbit mAb #86377. Incubate overnight at 4° C. Wash 3 times with 300 uL TBST, each time on shaker for 5-10 min. Prepare goat anti-rabbit antibody conjugated to HRP (1/100K dilution in blocking buffer) Invitrogen Catalog number: 32260. Add 75 uL of HRP-conjugated goat anti-rabbit antibody. Incubate at room temperature for 1 hour. Flick out the HRP-antibody mixture. Wash 7-8 times with TBST, each time on shaker for 10 min. Later washes try to overflow the wells so that no residual HRP remains bound to the sides of the well. Prepare and add 75 uL/well of QuantaRed Enhance Chemifluorescent HRP Substrate solution. Immediately read fluorescence on BMG ClarioStar (ex: 570/em 585), and repeat the read in 5 minutes and 15 minutes.
row,Structure (SMILES),Average Ternary Complex
1,"CC(=O)N1CCc2c(c(N3CCCc4cc(-c5cnn(C)c5)c(C(F)F)cc43)nn2C2CCN(CCOCCOc3ccc(C4CCN(c5ccc(C#N)c(C(F)(F)F)c5)CC4)cc3)CC2)C1 [Compound 2, 4-[4-[4-[2-[2-[4-[5-acetyl-3-[7-(difluoromethyl)-6-(1-methylpyrazol-4-yl)-3,4-dihydro-2H-quinolin-1-yl]-6,7-dihydro-4H-pyrazolo[4,3-c]pyridin-1-yl]-1-piperidyl]ethoxy]ethoxy]phenyl]-1-piperidyl]-2-(trifluoromethyl)benzonitrile]",D (D is active and >100 nM)
2,"CC(=O)N1CCc2c(c(N3CCCc4cc(-c5cnn(C)c5)c(C(F)F)cc43)nn2C2CCN(CCCCOc3ccc(C4CCN(c5ccc(C#N)c(C(F)(F)F)c5)CC4)cc3)CC2)C1 [Compound 3, 4-[4-[4-[4-[4-[5-acetyl-3-[7-(difluoromethyl)-6-(1-methylpyrazol-4-yl)-3,4-dihydro-2H-quinolin-1-yl]-6,7-dihydro-4H-pyrazolo[4,3-c]pyridin-1-yl]-1-piperidyl]butoxy]phenyl]-1-piperidyl]-2-(trifluoromethyl)benzonitrile]",D (D is active and >100 nM)
3,CC(=O)N1CCc2c(c(N3CCCc4cc(-c5cnn(C)c5)c(C(F)F)cc43)nn2C2CCN(C3CCC(Oc4ccc(-c5ccc(N6C(=S)N(c7ccc(C#N)c(C(F)(F)F)c7)C(=O)C6(C)C)cc5)cc4)C3)CC2)C1 (centres unmarked) [Compound 18],B (B is >1 nM and ≤10 nM)
4,CC(=O)N1CCc2c(c(N3CCCc4cc(-c5cnn(C)c5)c(C(F)F)cc43)nn2C2CCN(C3CC(Oc4ccc(-c5ccc(N6C(=S)N(c7ccc(C#N)c(C(F)(F)F)c7)C(=O)C6(C)C)cc5)cc4)C3)CC2)C1 (centres unmarked) [Compound 19],B (B is >1 nM and ≤10 nM)
5,CC(=O)N1CCc2c(c(N3CCCc4cc(-c5cnn(C)c5)c(C(F)F)cc43)nn2C2CCN(CCOC3CCN(c4ccc(N5C(=S)N(c6ccc(C#N)c(C(F)(F)F)c6)C(=O)C5(C)C)cc4)CC3)CC2)C1 [Compound 20],B (B is >1 nM and ≤10 nM)
6,CC(=O)N1CCc2c(c(N3CCCc4cc(-c5cnn(C)c5)c(C(F)F)cc43)nn2C2CCN(C(=O)COC3CCN(c4ccc(N5C(=S)N(c6ccc(C#N)c(C(F)(F)F)c6)C(=O)C5(C)C)cc4)CC3)CC2)C1 [Compound 21],B (B is >1 nM and ≤10 nM)
